# Target: T1, SmPAL (Streptomyces maritimus, UniProt Q9KHJ9)
# T1 construct: gene encP; native gene amplified from pHB-104, expressed from pHCMS-SmPAL (PH36 promoter) in Corynebacterium glutamicum ATCC 13032; 56 kDa; no tag mentioned; whole cells, not purified
# T1 sequence (Q9KHJ9 1-523): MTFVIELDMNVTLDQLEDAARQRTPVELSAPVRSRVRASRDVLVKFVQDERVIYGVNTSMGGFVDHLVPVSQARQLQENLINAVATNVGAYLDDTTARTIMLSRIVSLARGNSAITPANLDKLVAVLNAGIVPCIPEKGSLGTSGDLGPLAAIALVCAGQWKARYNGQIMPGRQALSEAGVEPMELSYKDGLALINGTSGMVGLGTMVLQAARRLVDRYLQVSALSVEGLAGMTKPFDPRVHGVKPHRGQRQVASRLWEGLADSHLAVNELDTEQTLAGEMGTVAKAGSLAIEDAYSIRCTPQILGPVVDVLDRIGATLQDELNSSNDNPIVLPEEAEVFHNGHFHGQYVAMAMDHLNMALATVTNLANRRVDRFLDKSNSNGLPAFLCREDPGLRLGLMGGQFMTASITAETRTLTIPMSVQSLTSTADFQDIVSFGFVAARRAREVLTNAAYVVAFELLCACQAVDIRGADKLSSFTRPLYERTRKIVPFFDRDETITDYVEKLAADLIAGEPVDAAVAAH
# Test: whole-cell bioconversion, HPLC of L-Phe and t-CA
# Format: cell-based
# Conditions: C. glutamicum harboring pHCMS-SmPAL; 18.2 mM L-Phe; 100 mM Tris-HCl pH 7.5; 30 °C; product trans-cinnamic acid
smiles,measurement,value
N[C@@H](Cc1ccccc1)C(=O)O [L-phenylalanine],"whole-cell bioconversion, HPLC of L-Phe and t-CA",the bioconversion of L-Phe to t-CA was immediately observed
